Measurements from patent publication US5985926A, “Method for inhibiting intracellular viral replication” (Cell Therapeutics, Inc., priority 1997, dated 1999).
“Also recorded” adds a separate entry of the source. Where two headings read alike, the source gives them in different places.

Assays:
[1] = system: HIV-1 in U1 cells (TNF-α mediated expression); test: TNF-α-mediated HIV-1 p24 antigen expression in chronically infected U1 cells; format: cell-based, HIV-1; human cells; details: for suppression of TNFα-mediated HIV-1 expression (p24): in words
Description: (§1) Another assay examined the effect of compounds on chronically HIV-1 infected U1 cells. A relatively high density of U1 cells at 10^4 cells/well were incubated in the absence or presence of compounds for 4 days. HIV-1 p24 antigen expression in the culture media was measured by using a ELISA kit (Abbott). Alternatively, U1 cells were plated at a relatively low density of 2×10^3 cell/well plus or minus TNF at 20 pg/ml and plus or minus compounds. The expression of HIV-1 p24 antigen in culture media was measured by ELISA four days later.
(§2) Stable cell lines 293tar, 293tat and 293tat2 were generated by transfections using conditions described in (Tate et al., FASEB J. 4:227-231, 1990) with the plasmid pHIV.AP alone or along with either pHIV.tat or pSV2tat72, respectively. The assay of HIV-1 p24 antigen expression in the chronically HIV-1-infected promonocytic line U1 after 4 days and in acutely infected peripheral blood lymphocytes (PBL) after 7 days were described (Peterson et al., J. Clin. Invest. 89:574-580, 1992, and Brighty et al., Proc Natl. Acad. Sci. USA 88:7802-7805, 1991).
(§3) This example illustrates that CT2576 inhibited both constitutive and cytokine-induced HIV expression in a chronically-infected U1 cell line. A chronically HIV-1 infected human promonocyte cell line, U1 (Poli et al., J. Exp. Med. 172:151-158, 1990), was used as a model to see if the inhibitory effect of CT2576 on HIV-LTR driven reporter gene expression could be extended to block HIV replication per se in infected cells. TNF-α and IL-6 have been reported to upregulate the expression of HIV-1 in U1 cells (Poli et al., Proc Natl. Acad. Sci. USA 91:108-112, 1994). U1 cells were plated onto 24-well microtiter plates to study the dose-response effect of CT2576 on the constitutive (10^4 cells/well), TNF-α or IL-6 mediated (2×10^3 cells/well) expression of HIV-1. CT2576 was capable of inhibiting the constitutive, the TNF-α mediated, as well as the IL-6 mediated expression of HIV in U1 cells with an IC50 value of less than 1 μM (FIG. 17).

U1 cells = test: Cytotoxicity in U1 cells; format: cell-based, human
Excerpt: We studied the effect of CT-2576 on HIV expression in a chronically HIV-1 infected promonocytic U1 cell line (Folks et al., Science 238:800-802, 1987). […] TNF-α and other cytokines can induce HIV expression in U1 cells. U1 cells also express HIV constitutively when grown to a relatively high density. […] An inhibitor of viral reverse transcriptase is expected to only protect new cells from becoming infected but not to affect viral production from cells already infected with HIV. […] While TNF-α induces HIV expression through activation of NFκB, IL-6 and IL-1 also stimulates HIV expression through other pathways independent of NFκB activation in U1 cells.

293-EBNA cells = test: Viability of 293-EBNA cells, Alamar Blue; format: cell-based, human
Method in brief: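 Viability read with Alamar Blue, a vital dye reduced by mitochondrial dehydrogenases to a soluble product. Signal quantified as the absorbance difference between A570 and A600.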

[2] = system: HIV-1 in U1 cells (constitutive expression); test: Constitutive HIV-1 p24 antigen expression in chronically infected U1 cells; format: cell-based, HIV-1; human cells; details: for suppression of constitutive HIV-1 expression (p24): U1 cells plated at high density, in words
Description: as §1, §2, §3

NFκB = NFκB activation in 293tat cells, electrophoretic mobility shift assay; format: cell-based, human; details: CT2576 12 μM, TNF-α 40 ng/ml or IL-1β 1 ng/ml
Description: Nuclear extracts (A) from 293tat cells were tested by EMSA for activation of NFκB. A radiolabeled 40-mer covering the NFκB sequences in the HIV promoter was used as a probe. Cells were incubated with CT2576 at 12 μM, human TNF-α at 40 ng/ml or IL-1β at 1 ng/ml, or pre-incubated for 30 min. with CT2576 and then stimulated with TNF-α or IL-1β for 18 hr prior to making extracts. RNA was extracted from 293tat cells (B) after treatment with CT2576 without or with TNF-α or IL-1β for 18 hr. Northern blots analysis were performed using probes derived from AP cDNA and G3PDH cDNA as a control for normalization of mRNA level. AP activity was determined in cell supernatants from the various samples.
NFκB binding activity in nuclear extracts (Dignam et al., Nucleic Acids Res. 11:1475-1489, 1983) of cells was measured by electrophoretic mobility-shift assay (EMSA) (Carthew et al., Cell 43:439-448, 1985) using 5'-labeled double-stranded synthetic DNA with two NF-κB motifs. Northern blot analysis was performed with total RNA run on 1% agarose/formaldehyde gel and probed with ^32 P-labeled cDNA of AP and glyceraldehyde-3-phosphate dehydrogenase (G3PDH).

Compound: CCCCCCCCNCC(O)CCCCCCCCCN1C(=O)CCN(C)C1=O (stereo not shown) [CT1829, 3-(11-octylamino-10-hydroxyundecyl)-1-methyldihydrouracil]
- suppression of TNFα-mediated HIV-1 expression (p24) ([1]; U1 cells): suppressed HIV-1 expression
- cytotoxicity in U1 cells at 25 μM (U1 cells; 25 μM, FIG. 12 bottom panel, TNFα): some cytotoxicity
- cytotoxic effect on 293-EBNA cells (Alamar Blue) (293-EBNA cells): no significant cytotoxic effect
- suppression of constitutive HIV-1 expression (p24) [2]: suppressed constitutive HIV-1 expression

Compound: CCCCCCCCNCC(O)CCCCCCCCCn1c(=O)c2c(ncn2C)n(C)c1=O (stereo not shown) [CT2576, 1-(11-octylamino-10-hydroxyundecyl)-3,7-dimethylxanthine]
- IC50 ([1]; Human immunodeficiency virus 1, 96 h, read-out: IC50, TNF-α mediated HIV expression, U1 cells, 4 days): ~1 µM
- IC50 ([1]; U1 cells, 4 days, read-out: IC50, TNF-α mediated HIV expression): < 1 µM
- suppression of TNFα-mediated HIV-1 expression (p24) ([1]; U1 cells): suppressed HIV-1 expression; also recorded: the most effective; also recorded: inhibited
- cytotoxicity in U1 cells, trypan-blue dye exclusion (U1 cells; trypan-blue dye exclusion assay): no cytotoxicity
- activation of NFκB (NFκB): did not inhibit TNF-α dependent activation of NFκB
- toxic concentration (not toxic at concentrations up to), 293-EBNA cells (293-EBNA cells): > 35 µM
- IC50 ([2]; Human immunodeficiency virus 1, 96 h, read-out: IC50, constitutive HIV expression, U1 cells, 4 days): ~1 µM
- suppression of constitutive HIV-1 expression (p24) [2]: the most effective; also recorded: inhibited; also recorded: suppressed constitutive HIV-1 expression
- IC50 ([2]; read-out: IC50, constitutive HIV expression, U1 cells, 4 days): < 1 µM
